In patent US20090218708A1, “Process for preparing concentrated aqueous micellar solutions” (Roche Palo Alto LLC, priority 2008, published 2009):

Tests used:
Format in all cases: physicochemical
[1] = Solubility of compound II in solvents
Description: Compound II (2 g) was slowly dispersed in 70% IPA (20 mL) and water (14 mL) was added. […] The IPA was distilled using rotary evaporator to achieve an aqueous solution containing ca. […] of II. The concentrated aqueous solution was spray dried using a Buchi B-290 spray drier and the operating parameters were adjusted as follows: […]

[2] = Stability study of micellar solid from spray drying of I (HPLC area %)
Description: (§1) A small amount of the solid (about 10 mg from example 1) was weighed into a weighing bottle and placed in a chamber with controlled relative humidity for 4 weeks and the percentage of water absorbed was calculated form the weight gain. The sample was also assayed by HPLC against an external standard on a Waters 2690 HPLC at 276 nm. The data was processed using Waters Millennium software version 3.2. The thermal stability also was determined at 60° C. and at 40° C./75% relative humidity. The purity of the sample was determined by assaying weighed aliquots by HPLC against an external standard.

[3] = Hygroscopicity: water absorbed in controlled relative humidity chamber (weight gain); details: 4 weeks
Description: as §1

Structure (SMILES)	solubility ([1]; aqueous with cosolvent or surfactant or cyclodextrin, in 70% IPA/H2O)	solubility ([1]; in water)	solubility ([1]; organic solvent or mixture, in IPA)	Area % ([2]; 25° C./60% RH (closed), 4 weeks)	Area % ([2]; 25° C./60% RH (closed), To)	Area % ([2]; 40° C./75% RH (closed), 4 weeks)	Area % ([2]; 40° C./75% RH (closed), To)	Area % ([2]; 40° C./75% RH (open), 5 weeks)	Area % ([2]; 40° C./75% RH (open), To)	Area % ([2]; 60° C. (closed), 5 weeks)	Area % ([2]; 60° C. (closed), To)	thermal stability ([2]; at 40 and 60° C. over the duration of the assay)	hygroscopicity [3]
CCC(=O)[N-]S(=O)(=O)c1ccc(NC(=O)Cc2ccc(Br)c(Oc3cc(Cl)cc(C#N)c3)c2F)c(Cl)c1.[Na+] [II]	~47000 µg/mL	~4000 µg/mL	~80 µg/mL										
O=C(O)CCc1cc(C(=O)c2ccc(OC3CCCC3)cc2O)ccc1OCc1ccc2c(O)noc2c1 [I]				99.88%	99.88%	99.91%	99.88%	99.26%	99.81%	99.72%	99.81%	thermally stable	not hygroscopic
